#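 The compound was tested at five concentrations on cells cultured in 96-well plates, with a 48-hour exposure period. GI50: concentration for 50% inhibition of growth. TGI: total growth inhibition.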
# What was measured:
# Assay in all cases: growth of human tumour cells (NCI), 48 h
# MALME-3M melanoma = tested on: MALME-3M melanoma
# LOX IMVI melanoma = tested on: LOX IMVI melanoma
# UACC-257 melanoma = tested on: UACC-257 melanoma
# SR leukemia = tested on: SR leukemia
# SK-MEL-5 melanoma = tested on: SK-MEL-5 melanoma
# UO-31 renal = tested on: UO-31 renal
# SF-268 CNS = tested on: SF-268 CNS
# IGROV1 ovarian = tested on: IGROV1 ovarian
# HCC-2998 colon = tested on: HCC-2998 colon
# DMS 273 small cell lung = tested on: DMS 273 small cell lung
Compound,GI50 (MALME-3M melanoma),TGI (MALME-3M melanoma),GI50 (LOX IMVI melanoma),TGI (LOX IMVI melanoma),GI50 (UACC-257 melanoma),TGI (UACC-257 melanoma),GI50 (SR leukemia),TGI (SR leukemia),GI50 (SK-MEL-5 melanoma),TGI (SK-MEL-5 melanoma),GI50 (UO-31 renal),TGI (UO-31 renal),GI50 (SF-268 CNS),TGI (SF-268 CNS),GI50 (IGROV1 ovarian),TGI (IGROV1 ovarian),GI50 (HCC-2998 colon),TGI (HCC-2998 colon),GI50 (DMS 273 small cell lung),TGI (DMS 273 small cell lung)
COc1cc2c(=O)n(CCN)c3c4cc5c(cc4ccc3c2cc1OC)OCO5,0.692 µM,2.2 µM,0.362 µM,1.78 µM,1.92 µM,13.3 µM,0.0907 µM,1.03 µM,0.834 µM,2.15 µM,0.605 µM,2.1 µM,0.423 µM,2.14 µM,0.467 µM,2.07 µM,1.08 µM,2.47 µM,–,–
Cc1[nH]nc(C(=O)n2nc(N)c3ccccc32)c1[N+](=O)[O-],> 100 µM,> 100 µM,> 39.5 µM,> 100 µM,> 100 µM,> 100 µM,26.2 µM,> 100 µM,> 100 µM,> 100 µM,> 78.6 µM,> 100 µM,> 100 µM,> 100 µM,37.5 µM,> 100 µM,> 100 µM,> 100 µM,–,–
COc1ccc(C2=NN(C=O)C(c3cccc(Nc4ccnc5cc(Cl)ccc45)c3)C2)cc1 (stereo unspecified),2.04 µM,18.9 µM,2.52 µM,12.5 µM,3.06 µM,28.5 µM,0.583 µM,5.23 µM,0.922 µM,3.71 µM,3.25 µM,64.6 µM,4.8 µM,88.7 µM,3.71 µM,> 100 µM,11.7 µM,94.3 µM,–,–
COc1ccc2cc(-c3c(-c4ccncc4)nc(-c4ccc(S(C)(=O)=O)cc4C)n3C)ccc2c1,4.9 µM,> 25 µM,9.01 µM,> 25 µM,7.75 µM,> 25 µM,13 µM,> 25 µM,4.54 µM,> 15.4 µM,4.4 µM,20.2 µM,11.1 µM,> 25 µM,7.47 µM,> 25 µM,12 µM,> 25 µM,–,–
COc1ccc(-c2oc3c(OC)c(OC)c(OC)c(OC)c3c(=O)c2OC)cc1OC,–,68 µM,–,> 100 µM,–,> 100 µM,–,79.9 µM,–,66.3 µM,–,> 100 µM,–,35.2 µM,–,> 100 µM,–,> 100 µM,–,–
Cc1cc2c(cc1Cl)SC1=NN(C)C(N(C)C)N1S2(=O)=O (stereo unspecified),> 100 µM,> 100 µM,> 100 µM,> 100 µM,> 100 µM,> 100 µM,> 100 µM,> 100 µM,> 100 µM,> 100 µM,98.1 µM,> 100 µM,> 100 µM,> 100 µM,> 100 µM,> 100 µM,> 100 µM,> 100 µM,–,–
CC(CCC(=O)O)C(=O)O (stereo unspecified),–,> 100 µM,–,> 100 µM,–,> 100 µM,–,> 100 µM,–,> 100 µM,–,> 100 µM,–,> 100 µM,–,> 100 µM,–,> 100 µM,–,–
CC[O-].CC[O-].O=S(=O)([O-])c1ccc([O-])c2ncccc12.O=S(=O)([O-])c1ccc([O-])c2ncccc12.[Ti+4],> 100 µM,> 100 µM,28.3 µM,> 100 µM,43.7 µM,> 100 µM,–,–,> 100 µM,> 100 µM,74.4 µM,> 100 µM,42.1 µM,> 100 µM,> 100 µM,> 100 µM,68.2 µM,> 100 µM,78.1 µM,> 100 µM

# Source: PubChem BioAssay (NCI)
